Assay [1] deals with T1, MTHFD1 recombinant human enzyme (Homo sapiens, UniProt P11586).
T1 sequence (P11586 2-291 limits assumed): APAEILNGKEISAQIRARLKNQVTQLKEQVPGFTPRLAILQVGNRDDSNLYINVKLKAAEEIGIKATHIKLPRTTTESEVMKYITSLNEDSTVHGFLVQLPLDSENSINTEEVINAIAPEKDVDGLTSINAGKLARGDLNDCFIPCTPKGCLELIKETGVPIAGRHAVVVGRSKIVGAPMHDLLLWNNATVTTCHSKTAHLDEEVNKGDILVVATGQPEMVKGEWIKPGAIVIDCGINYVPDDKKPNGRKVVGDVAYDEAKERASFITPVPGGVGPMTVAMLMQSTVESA
As to the kind of experiment: MTHFD1 inhibition assay (NAD(P)H-Glo luminescence). Particulars: MTHFD1 IC50, recombinant human enzyme 200 nM, NADP, band.

Assay [2] deals with T2, MTHFD2 recombinant human enzyme (Homo sapiens, UniProt P13995).
T2 sequence (P13995 36-350): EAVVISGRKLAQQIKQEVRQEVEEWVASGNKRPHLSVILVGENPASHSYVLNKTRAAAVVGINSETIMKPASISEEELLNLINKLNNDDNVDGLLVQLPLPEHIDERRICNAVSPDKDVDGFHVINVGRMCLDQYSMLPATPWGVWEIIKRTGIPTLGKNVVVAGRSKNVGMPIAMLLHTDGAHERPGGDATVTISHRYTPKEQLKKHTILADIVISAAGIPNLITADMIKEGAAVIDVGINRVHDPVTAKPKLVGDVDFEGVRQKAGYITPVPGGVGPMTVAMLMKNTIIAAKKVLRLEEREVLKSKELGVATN
Description: MTHFD2 inhibition assay (NAD(P)H-Glo luminescence). Particulars: for MTHFD1/MTHFD2 IC50 ratio: selectivity of MTHFD2 inhibition over MTHFD1, band.

Regarding `COC[C@H]1CN(c2cc(C)c3c4c(c(=O)oc3c2C)CN(C(=O)c2ccc(C(=O)NS(=O)(=O)N(C)C)c(N3CCC[C@H]3C)c2)CC4)CCN1C` [Example 102, N-(N,N-dimethylsulfamoyl)-4-(8-((R)-3-(methoxymethyl)-4-methylpiperazin-1-yl)-7,10-dimethyl-5-oxo-1,3,4,5-tetrahydro-2H-chromeno[3,4-c]pyridine-3-carbonyl)-2-((R)-2-methylpyrrolidin-1-yl)benzamide], in assay [1], the IC50 (as a rule, the concentration at which inhibition is half-maximal) was in the range of 0.01 to 0.1 µM. Besides, in assay [2], the IC50 lay within 0.01 to 0.1 µM and the “MTHFD1/MTHFD2 IC50 ratio” value is given as “F (<3)”.
`CCOc1c(C(=O)NS(=O)(=O)N2CC3CCC(C3)C2)ccc(C(=O)N2CCc3c(c(=O)oc4c(C)c(N5CCN(C)[C@@H](COC)C5)ccc34)C2)c1F` [Example 237]: the half-inhibitory concentration (IC50) in assay [1] and in assay [2] was 0.01 to 0.1 µM throughout. Also, the “MTHFD1/MTHFD2 IC50 ratio” value in assay [2] is “F (<3)”.
In the case of `COC[C@H]1CN(c2cc(C)c3c4c(c(=O)oc3c2C)CN(C(=O)c2cc(Cl)c(C(=O)NS(=O)(=O)N(C)C)c(N3CC5CC5C3)c2)CC4)CCN1C` (stereo partly drawn) [Example 34, 2-(3-azabicyclo[3.1.0]hexan-3-yl)-6-chloro-N-(N,N-dimethylsulfamoyl)-4-(8-((R)-3-(methoxymethyl)-4-methylpiperazin-1-yl)-7,10-dimethyl-5-oxo-1,3,4,5-tetrahydro-2H-chromeno[3,4-c]pyridine-3-carbonyl)benzamide], in assay [1], the IC50 lay in the range of 0.1 to 1 µM. For the same compound, in assay [2], the IC50 lay in the range of 0.001 to 0.01 µM and the “MTHFD1/MTHFD2 IC50 ratio” value is on record as “J (>30)”.
With `COC[C@H]1CN(c2ccc3c4c(c(=O)oc3c2C)CN(C(=O)c2ccc(C(=O)NS(=O)(=O)C3(C)CC3)c(OC3CCC3)c2F)CC4)CCN1C` [Example 42, (R)-2-cyclobutoxy-3-fluoro-4-(8-(3-(methoxymethyl)-4-methylpiperazin-1-yl)-7-methyl-5-oxo-1,3,4,5-tetrahydro-2H-chromeno[3,4-c]pyridine-3-carbonyl)-N-((1-methylcyclopropyl)sulfonyl)benzamide], the 50% inhibitory concentration (IC50) in assay [1] and in assay [2] was 0.001 to 0.01 µM each time. For the same compound, the “MTHFD1/MTHFD2 IC50 ratio” value in assay [2] was “G (^ 3 to 9.0)”.
Consider `COC[C@H]1CN(c2cc(C)c3c4c(c(=O)oc3c2C)CN(C(=O)c2ccc(C(=O)NS(=O)(=O)N3CCCCC3)c(OC)c2F)CC4)CCN1C` [Example 239], for which the IC50 in assay [1] lay in the range of 0.1 to 1 µM. In assay [2], the IC50 was 0.01 to 0.1 µM and the “MTHFD1/MTHFD2 IC50 ratio” value is recorded as “H (>9.0 to 30)”.
With `COC[C@H]1CN(c2ccc3c4c(c(=O)oc3c2C)CN(C(=O)c2ccc(C(=O)NS(=O)(=O)N3[C@H](C)CC[C@H]3C)c(OC3CCC3)c2F)CC4)CCN1C` [Example 177, 2-cyclobutoxy-N-(((2R,5R)-2,5-dimethylpyrrolidin-1-yl)sulfonyl)-3-fluoro-4-(8-((R)-3-(methoxymethyl)-4-methylpiperazin-1-yl)-7-methyl-5-oxo-1,3,4,5-tetrahydro-2H-chromeno[3,4-c]pyridine-3-carbonyl)benzamide], in assay [1], the IC50 lay in the range of 0.1 to 1 µM. For the same compound, in assay [2], the 50% inhibitory concentration (IC50) lay within 0.1 to 1 µM and the “MTHFD1/MTHFD2 IC50 ratio” value is “F (<3)”.
In the case of `CCOc1c(C(=O)NS(=O)(=O)N2CCCC2)ccc(C(=O)N2CCc3c(c(=O)oc4c(C)c(N5CCN(C)[C@@H](COC)C5)cc(Cl)c34)C2)c1F` [Example 258, (R)-4-(10-chloro-8-(3-(methoxymethyl)-4-methylpiperazin-1-yl)-7-methyl-5-oxo-1,3,4,5-tetrahydro-2H-chromeno[3,4-c]pyridine-3-carbonyl)-2-ethoxy-3-fluoro-N-(pyrrolidin-1-ylsulfonyl)benzamide], the IC50 in assay [1] was 0.01 to 0.1 µM. In assay [2], the IC50 is 0.001 to 0.01 µM and the “MTHFD1/MTHFD2 IC50 ratio” value was “H (>9.0 to 30)”.
In the case of `COC[C@H]1CN(c2cc(C)c3c4c(c(=O)oc3c2C)CN(C(=O)c2ccc(C(=O)NS(=O)(=O)N3CCCC3)c(N3CCC[C@@H]3C)c2)CC4)CCN1C` [Example 122, 4-(8-((R)-3-(methoxymethyl)-4-methylpiperazin-1-yl)-7,10-dimethyl-5-oxo-1,3,4,5-tetrahydro-2H-chromeno[3,4-c]pyridine-3-carbonyl)-2-((S)-2-methylpyrrolidin-1-yl)-N-(pyrrolidin-1-ylsulfonyl)benzamide], the concentration for half-maximal inhibition (IC50) in assay [1] was in the range of 0.01 to 0.1 µM. In assay [2], the concentration for half-maximal inhibition (IC50) fell in the range of 0.01 to 0.1 µM and the “MTHFD1/MTHFD2 IC50 ratio” value is reported as “F (<3)”.
As for `COC[C@H]1CN(c2cc(C)c3c4c(c(=O)oc3c2C)CN(C(=O)c2cc(N(C)C)c(C(=O)NS(=O)(=O)N3CCC(C(F)(F)F)CC3)cc2F)CC4)CCN1C` [Example 296, (R)-2-(dimethylamino)-5-fluoro-4-(8-(3-(methoxymethyl)-4-methylpiperazin-1-yl)-7,10-dimethyl-5-oxo-1,3,4,5-tetrahydro-2H-chromeno[3,4-c]pyridine-3-carbonyl)-N-((4-(trifluoromethyl)piperidin-1-yl)sulfonyl)benzamide], the half-maximal inhibitory concentration (IC50) in assay [1] lay in the range of 0.1 to 1 µM; in assay [2], 0.01 to 0.1 µM.
On to `COC[C@H]1CN(c2cc(C)c3c4c(c(=O)oc3c2C)CN(C(=O)c2cc(F)c(C(=O)NS(=O)(=O)N3CCCC3)cc2N(C)C)CC4)CCN1C` [Example 243], for which the concentration for half-maximal inhibition (IC50) in assay [1] lay in the range of 1 to 5 µM; in assay [2], 0.01 to 0.1 µM. Moreover, the “MTHFD1/MTHFD2 IC50 ratio” value in assay [2] is given as “J (>30)”.
On the same counts, the results for `COC[C@H]1CN(c2ccc3c4c(c(=O)oc3c2Cl)CN(C(=O)c2ccc(C(=O)NS(=O)(=O)N3CCCC3)c(OC3CCC3)c2)CC4)CCN1C` [Example 14, (R)-4-(7-chloro-8-(3-(methoxymethyl)-4-methylpiperazin-1-yl)-5-oxo-1,3,4,5-tetrahydro-2H-chromeno[3,4-c]pyridine-3-carbonyl)-2-cyclobutoxy-N-(pyrrolidin-1-ylsulfonyl)benzamide] are 0.01 to 0.1 µM, 0.01 to 0.1 µM and “F (<3)”.
Turning to `COC[C@H]1CN(c2ccc3c4c(c(=O)oc3c2C)CN(C(=O)c2cc(OC3CCC3)c(C(=O)NS(=O)(=O)N3CCCC3)c(C(F)(F)F)c2)CC4)CCN1C` [Example 133, (R)-2-cyclobutoxy-4-(8-(3-(methoxymethyl)-4-methylpiperazin-1-yl)-7-methyl-5-oxo-1,3,4,5-tetrahydro-2H-chromeno[3,4-c]pyridine-3-carbonyl)-N-(pyrrolidin-1-ylsulfonyl)-6-(trifluoromethyl)benzamide], in assay [1], the IC50 is 0.1 to 1 µM. Also, in assay [2], the IC50 fell in the range of 0.1 to 1 µM and the “MTHFD1/MTHFD2 IC50 ratio” value is “G (^ 3 to 9.0)”.
`CCOC[C@H]1CN(c2ccc3c4c(c(=O)oc3c2C)CN(C(=O)c2ccc(C(=O)NS(=O)(=O)N3CCCC3)c(OC3CCC3)c2F)CC4)CCN1C` [Example 143, (R)-2-cyclobutoxy-4-(8-(3-(ethoxymethyl)-4-methylpiperazin-1-yl)-7-methyl-5-oxo-1,3,4,5-tetrahydro-2H-chromeno[3,4-c]pyridine-3-carbonyl)-3-fluoro-N-(pyrrolidin-1-ylsulfonyl)benzamide]: in assay [1], the IC50 was 0.1 to 1 µM. In assay [2], the IC50 lay in the range of 0.01 to 0.1 µM and the “MTHFD1/MTHFD2 IC50 ratio” value is reported as “G (^ 3 to 9.0)”.
For `COC[C@H]1CN(c2cc(C)c3c4c(c(=O)oc3c2C)CN(C(=O)c2cc(OC3CCCC3)c(C(=O)NS(=O)(=O)N(C)C)c(C(F)(F)F)c2)CC4)CCN1C` [Example 153, (R)-2-(cyclopentyloxy)-N-(N,N-dimethylsulfamoyl)-4-(8-(3-(methoxymethyl)-4-methylpiperazin-1-yl)-7,10-dimethyl-5-oxo-1,3,4,5-tetrahydro-2H-chromeno[3,4-c]pyridine-3-carbonyl)-6-(trifluoromethyl)benzamide], the IC50 in assay [1] was 1 to 5 µM. Moreover, in assay [2], the half-inhibitory concentration (IC50) lay within 0.01 to 0.1 µM and the “MTHFD1/MTHFD2 IC50 ratio” value is “H (>9.0 to 30)”.
In the same order, the values of `COC[C@H]1CN(c2cc(C)c3c4c(c(=O)oc3c2C)CN(C(=O)c2ccc(C(=O)NS(=O)(=O)N3CCCC3)c(N3CCCC3)c2)CC4)CCN1C` [Example 96, (R)-4-(8-(3-(methoxymethyl)-4-methylpiperazin-1-yl)-7,10-dimethyl-5-oxo-1,3,4,5-tetrahydro-2H-chromeno[3,4-c]pyridine-3-carbonyl)-2-(pyrrolidin-1-yl)-N-(pyrrolidin-1-ylsulfonyl)benzamide] are 0.001 to 0.01 µM, 0.001 to 0.01 µM and “G (^ 3 to 9.0)”.
With `CCOc1cc(C(=O)N2CCc3c(c(=O)oc4c(C)c(N5CCN(C)[C@@H](COC)C5)cc(Cl)c34)C2)c(F)cc1C(=O)NS(=O)(=O)C1(C)CC1` [Example 299, (R)-4-(10-chloro-8-(3-(methoxymethyl)-4-methylpiperazin-1-yl)-7-methyl-5-oxo-1,3,4,5-tetrahydro-2H-chromeno[3,4-c]pyridine-3-carbonyl)-2-ethoxy-5-fluoro-N-((1-methylcyclopropyl)sulfonyl)benzamide], the 50% inhibitory concentration (IC50) in assay [1] lay in the range of 0.1 to 1 µM. In assay [2], the half-inhibitory concentration (IC50) lay in the range of 0.01 to 0.1 µM and the “MTHFD1/MTHFD2 IC50 ratio” value is “H (>9.0 to 30)”.

The record behind these values is US12662489B2 (Sitryx Therapeutics Limited, priority 2023, dated 2026).
